Experimental data taken from patent US9447106B2, “Substituted pyrazolo[1,5-a]pyrimidines as bruton's tyrosine kinase modulators” (Beigene, Ltd., priority 2013, dated 2016).
pIC50: −log10 of the molar value. Structures can show the parent of a compound that is named as a salt.

molecular target: phosphorylated Btk at Tyr223 in Ramos cells (Homo sapiens (Human), UniProt Q06187); assay: Btk pY223 cellular assay (HTRF) in Ramos cells; format: cell-based; details: 1 hour compound incubation, pervanadate or Na3VO4 stimulation
Sequence (Q06187 whole entry): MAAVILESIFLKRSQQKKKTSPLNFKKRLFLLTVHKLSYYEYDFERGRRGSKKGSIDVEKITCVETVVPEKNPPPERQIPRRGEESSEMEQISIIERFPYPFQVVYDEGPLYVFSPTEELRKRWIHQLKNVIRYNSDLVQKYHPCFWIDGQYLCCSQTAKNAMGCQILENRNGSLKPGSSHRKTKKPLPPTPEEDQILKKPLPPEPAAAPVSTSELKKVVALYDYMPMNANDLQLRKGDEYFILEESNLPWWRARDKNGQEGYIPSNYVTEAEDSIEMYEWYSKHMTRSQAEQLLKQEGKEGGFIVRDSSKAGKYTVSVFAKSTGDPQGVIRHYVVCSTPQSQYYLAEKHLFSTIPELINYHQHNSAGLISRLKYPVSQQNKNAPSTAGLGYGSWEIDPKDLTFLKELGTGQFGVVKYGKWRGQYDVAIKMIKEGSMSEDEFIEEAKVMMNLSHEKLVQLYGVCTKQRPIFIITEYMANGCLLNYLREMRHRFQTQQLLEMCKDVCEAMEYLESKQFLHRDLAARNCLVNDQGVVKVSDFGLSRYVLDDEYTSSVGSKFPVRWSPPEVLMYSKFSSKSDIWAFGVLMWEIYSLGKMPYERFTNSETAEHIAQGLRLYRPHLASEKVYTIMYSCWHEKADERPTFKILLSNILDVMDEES

| IC50 | Compound |
| --- | --- |
| 22.6 nM | C=CC(=O)N1CC2(CNc3c(C(N)=O)c(-c4ccc(Oc5ccccc5)cc4)nn32)C1 [Compound 46, 1-Acryloyl-6′-(4-phenoxyphenyl)-1′,2′-dihydrospiro[azetidine-3,3′-imidazo[1,2-b]pyrazole]-7′-carboxamide] |
| 223 nM | C=CC(=O)Nc1ccc2c(c1)CC(=O)Nc1c(C(N)=O)c(-c3ccc(Oc4ccccc4)cc3)nn1-2 [Compound 75, 8-Acrylamido-5-oxo-2-(4-phenoxyphenyl)-5,6-dihydro-4H-benzo[f]pyrazolo[1,5-a][1,3]diazepine-3-carboxamide] |
| 20.6 nM | C=CC(=O)N1CC(C2CCNc3c(C(N)=O)c(-c4ccc(OCc5ccccc5)cc4)nn32)C1 (stereo not shown) [Compound 104, 7-(1-acryloylazetidin-3-yl)-2-(4-(benzyloxy)phenyl)-4,5,6,7-tetrahydropyrazolo-[1,5-a]pyrimidine-3-carboxamide] |
| 3.9 nM | NC(=O)c1c(-c2ccc(Oc3ccccc3)cc2)nn2c1NCC[C@H]2C1CCN(C(=O)CCCl)CC1 [Compound 177, (S)-7-(1-(3-chloropropanoyl)piperidin-4-yl)-2-(4-phenoxy-phenyl)-4,5,6,7-tetrahydropyrazolo-[1,5-a]pyrimidine-3-carboxamide] |
| 7 nM | C=CC(=O)Nc1ccccc1C1CCNc2c(C(N)=O)c(-c3cc(Cl)c(OC)c(Cl)c3)nn21 (stereo not shown) [Compound 169, 7-(2-Acrylamido-phenyl)-2-(3,5-dichloro-4-methoxyphenyl)-4,5,6,7-tetrahydropyrazolo-[1,5-a]pyrimidine-3-carboxamide] |
| 1.5 nM | C=CC(=O)Nc1ccccc1C1CCNc2c(C(N)=O)c(-c3ccc(Cl)c(F)c3)nn21 (stereo not shown) [Compound 154, 7-(2-Acrylamidophenyl)-2-(4-chloro-3-fluorophenyl)-4,5,6,7-tetrahydropyrazolo[1,5-a]pyrimidine-3-carboxamide] |
| 4.6 nM | CN(C)C/C=C/C(=O)N1CCCc2[nH]c3c(C(N)=O)c(-c4ccc(Oc5ccccc5)cc4)nn3c2C1 [Compound 124, (E)-8-(4-(dimethylamino)but-2-enoyl)-2-(4-phenoxyphenyl)-4,5,6,7,8,9-hexahydropyrazolo-[5′,1′:2,3]-imidazo[4,5-c]azepine-3-carboxamide] |
| 4.1 nM | C=CC(=O)NCC1(C)CCNc2c(C(N)=O)c(-c3ccc(Oc4ccccc4)cc3)nn21 (stereo not shown) [Compound 143, 7-(acrylamidomethyl)-7-methyl-2-(4-phenoxyphenyl)-4,5,6,7-tetrahydropyrazolo[1,5-a]pyrimidine-3-carboxamide] |
| 4 nM | C=CC(=O)Nc1ccccc1C1CCNc2c(C(N)=O)c(-c3ccc(OCc4ccccn4)c(Cl)c3)nn21 (stereo not shown) [Compound 146, 7-(2-Acrylamido-phenyl)-2-(3-chloro-4-(pyridin-2-ylmethoxy)phenyl)-4,5,6,7-tetrahydropyrazolo[1,5-a]pyrimidine-3-carboxamide] |
| 12.6 nM | CN(C)C/C=C/C(=O)N1CCc2[nH]c3c(C(N)=O)c(-c4ccc(Oc5ccccc5)cc4)nn3c2CC1 [Compound 122, (E)-7-(4-(dimethylamino)but-2-enoyl)-2-(4-phenoxyphenyl)-4,5,6,7,8,9-hexahydropyrazolo-[1′,5′:1,2]-imidazo[4,5-d]azepine-3-carboxamide] |
| 2.4 nM | C=CC(=O)N1CC(C2CCNc3c(C(N)=O)c(-c4ccc(Oc5ccccc5C#N)cc4)nn32)C1 (stereo not shown) [Compound 135, 7-(1-acryloylazetidin-3-yl)-2-(4-(2-cyanophenoxy)phenyl)-4,5,6,7-tetrahydropyrazolo[1,5-a]pyrimidine-3-carboxamide] |
| 22.7 nM | C=CC(=O)Nc1ccccc1C1CCNc2c(C(N)=O)c(-c3ccc(F)c(F)c3)nn21 (stereo not shown) [Compound 137, 7-(2-acrylamidophenyl)-2-(3,4-difluorophenyl)-4,5,6,7-tetrahydropyrazolo[1,5-a]pyrimidine-3-carboxamide] |
| 140 nM | C=CC(=O)Nc1ccc2c(c1)c(=O)[nH]c1c(C(N)=O)c(-c3ccc(Oc4ccccc4)cc3)nn12 [Compound 78, 7-Acrylamido-5-oxo-2-(4-phenoxyphenyl)-4,5-dihydropyrazolo[1,5-a]quinazoline-3-carboxamide] |
| 4.8 nM | CN(C)C/C=C/C(=O)N1CCc2c([nH]c3c(C(N)=O)c(-c4ccc(Oc5ccccc5)cc4)nn23)C1 [Compound 64, (E)-6-(4-(Dimethylamino)but-2-enoyl)-2-(4-phenoxyphenyl)-5,6,7,8-tetrahydro-4H-pyrazolo[1′,5′:1,2]imidazo[4,5-c]pyridine-3-carboxamide trifluoroacetate] |
| 7.9 nM | C=CC(=O)N(C)CC1CCNc2c(C(N)=O)c(-c3ccc(Oc4ccccc4)cc3)nn21 (stereo not shown) [Compound 35] |
| 30.3 nM | C=CC(=O)N1CC(C2CCNc3c(C(N)=O)c(-c4ccc(Oc5ccc(Cl)cc5)cc4)nn32)C1 (stereo not shown) [Compound 106, 7-(1-acryloylazetidin-3-yl)-2-(4-(4-chlorophenoxy)-phenyl)-4,5,6,7-tetrahydropyrazolo[1,5-a]pyrimidine-3-carboxamide] |
| 7.6 nM | C=CC(=O)N1CCC(C2(C)CCNc3c(C(N)=O)c(-c4ccc(Oc5ccccc5)cc4)nn32)CC1 (stereo not shown) [Compound 138, 7-(1-acryloylpiperidin-4-yl)-7-methyl-2-(4-phenoxyphenyl)-4,5,6,7-tetrahydropyrazolo[1,5-a]pyrimidine-3-carboxamide] |
| 19.1 nM | COc1cc(-c2nn3c(c2C(N)=O)NCCC3c2ccccc2NC(=O)/C=C/CN(C)C)ccc1C (stereo not shown) [Compound 165, (E)-7-(2-(4-(Dimethylamino)but-2-enamido)phenyl)-2-(3-methoxy-4-methylphenyl)-4,5,6,7-tetrahydropyrazolo[1,5-a]pyrimidine-3-carboxamide] |
| 6.8 nM | C=CC(=O)Nc1ccccc1C1CCNc2c(C(N)=O)c(-c3ccc(Cl)c(Cl)c3)nn21 (stereo not shown) [Compound 156, 7-(2-Acrylamidophenyl)-2-(3,4-dichlorophenyl)-4,5,6,7-tetrahydropyrazolo-[1,5-a]pyrimidine-3-carboxamide] |

| Compound | IC50 |
| --- | --- |
| NC(=O)c1c(-c2ccc(Oc3ccccc3)cc2)nn2c1NCC[C@H]2C1CCN(C(=O)/C=C/CN2CCN(CCNC(=O)CCCC(=O)NCCCOCCOCCOCCCNC(=O)CCCC[C@H]3SC[C@H]4NC(=O)N[C@H]43)CC2)CC1 [Compound 178, N1-(2-(4-((E)-4-(4-((S)-3-carbamoyl-2-(4-phenoxyphenyl)-4,5,6,7-tetrahydropyrazolo[1,5-a]pyrimidin-7-yl)piperidin-1-yl)-4-oxobut-2-en-1-yl)piperazin-1-yl)ethyl)-N5-(15-oxo-19-((3aR,4R,6aS)-2-oxohexahydro-1H-thieno[3,4-d]imidazol-4-yl)-4,7,10-trioxa-14-azanonadecyl)glutaramide trifluoroacetate] | > 1000 nM |
| C=CC(=O)Nc1ccccc1C1CCNc2c(C(N)=O)c(-c3ccc(OCc4ccccc4)cc3)nn21 (stereo not shown) [Compound 10, 7-(2-Acrylamidophenyl)-2-(4-(benzyloxy)phenyl)-4,5,6,7-tetrahydro pyrazolo[1,5-a]pyrimidine-3-carboxamide] | 8 nM |
| C=CC(=O)Nc1ccc2c(c1)CCNc1c(C(N)=O)c(-c3ccc(Oc4ccccc4)cc3)nn1-2 [Compound 72, 8-Acrylamido-2-(4-phenoxyphenyl)-5,6-dihydro-4H-benzo[f]pyrazolo[1,5-a][1,3]diazepine-3-carboxamide] | 10.5 nM |
| CN(C)C/C=C/C(=O)N1CCC(C2CCNc3c(C(N)=O)c(-c4ccc(Oc5ccccc5)cc4)nn32)CC1 (single isomer, unassigned) [Compound 171, (R or S) (E)-7-(1-(4-(Dimethylamino)but-2-enoyl)piperidin-4-yl)-2-(4-phenoxyphenyl)-4,5,6,7-tetrahydropyrazolo-[1,5-a]pyrimidine-3-carboxamide] | 10.9 nM |
| C=CC(=O)N1CC[C@H]2[C@H](CNc3c(C(N)=O)c(-c4ccc(Oc5ccccc5)cc4)nn32)C1 (relative stereo) [Compound 30, Cis-7-Acryloyl-2-(4-phenoxyphenyl)-4,5,5a,6,7,8,9,9a-octahydro pyrazolo[1,5-a]pyrido[3,4-e]pyrimidine-3-carboxamide and Cis-7-acryloyl-2-(4-phenoxyphenyl)-4,4a,5,6,7,8,8a,9-octahydropyrazolo[1,5-a]pyrido[4,3-d]pyrimidine-3-carboxamide] | 4 nM |
| C=CC(=O)NCC1CNc2c(C(N)=O)c(-c3ccc(Oc4ccccc4)cc3)nn2C1 (stereo not shown) [Compound 86, 6-(Acrylamidomethyl)-2-(4-phenoxyphenyl)-4,5,6,7-tetrahydro pyrazolo[1,5-a]pyrimidine-3-carboxamide] | 4.4 nM |

molecular target: Recombinant Btk (Homo sapiens (Human), UniProt Q06187); assay: Btk kinase assay (TR-FRET); details: not given
Sequence (Q06187 whole entry): as above

| Compound | pIC50 |
| --- | --- |
| NC(=O)c1c(-c2ccc(Oc3ccccc3)cc2)nn2c1NCC[C@H]2C1CCN(C(=O)/C=C/CN2CCN(CCNC(=O)CCCC(=O)NCCCOCCOCCOCCCNC(=O)CCCC[C@H]3SC[C@H]4NC(=O)N[C@H]43)CC2)CC1 [Compound 178, N1-(2-(4-((E)-4-(4-((S)-3-carbamoyl-2-(4-phenoxyphenyl)-4,5,6,7-tetrahydropyrazolo[1,5-a]pyrimidin-7-yl)piperidin-1-yl)-4-oxobut-2-en-1-yl)piperazin-1-yl)ethyl)-N5-(15-oxo-19-((3aR,4R,6aS)-2-oxohexahydro-1H-thieno[3,4-d]imidazol-4-yl)-4,7,10-trioxa-14-azanonadecyl)glutaramide trifluoroacetate] | 7.34 |
| CN(C)C/C=C/C(=O)N1CCC(C2CCNc3c(C(N)=O)c(-c4ccc(Oc5ccccc5)cc4)nn32)CC1 (single isomer, unassigned) [Compound 171, (R or S) (E)-7-(1-(4-(Dimethylamino)but-2-enoyl)piperidin-4-yl)-2-(4-phenoxyphenyl)-4,5,6,7-tetrahydropyrazolo-[1,5-a]pyrimidine-3-carboxamide] | 8.85 |
| C=CC(=O)N1CC[C@H]2[C@H](CNc3c(C(N)=O)c(-c4ccc(Oc5ccccc5)cc4)nn32)C1 (relative stereo) [Compound 30, Cis-7-Acryloyl-2-(4-phenoxyphenyl)-4,5,5a,6,7,8,9,9a-octahydro pyrazolo[1,5-a]pyrido[3,4-e]pyrimidine-3-carboxamide and Cis-7-acryloyl-2-(4-phenoxyphenyl)-4,4a,5,6,7,8,8a,9-octahydropyrazolo[1,5-a]pyrido[4,3-d]pyrimidine-3-carboxamide] | 9.00 |

same assay, conditions: IC50 (nM) Btk, recombinant Btk, 1 hour pre-incubation, ATP at Km

| Compound | IC50 |
| --- | --- |
| C=CC(=O)Nc1ccc2c(c1)CCNc1c(C(N)=O)c(-c3ccc(Oc4ccccc4)cc3)nn1-2 [Compound 72, 8-Acrylamido-2-(4-phenoxyphenyl)-5,6-dihydro-4H-benzo[f]pyrazolo[1,5-a][1,3]diazepine-3-carboxamide] | 4.1 nM |

same assay, conditions: read-out: IC50 (nM) Btk; recombinant Btk, 1 hour pre-incubation, ATP at Km

| Compound | IC50 |
| --- | --- |
| C=CC(=O)Nc1ccccc1C1CCNc2c(C(N)=O)c(-c3ccc(OCc4ccccc4)cc3)nn21 (stereo not shown) [Compound 10, 7-(2-Acrylamidophenyl)-2-(4-(benzyloxy)phenyl)-4,5,6,7-tetrahydro pyrazolo[1,5-a]pyrimidine-3-carboxamide] | 1.5 nM |
| C=CC(=O)N1CC[C@H]2Nc3c(C(N)=O)c(-c4ccc(Oc5ccccc5)cc4)nn3C[C@H]2C1 [Compound 31] | 15 nM |
